Measured values as given in the supplement of paper PMC10307832.

These cell lines were tested with CC1=C(N=C(N=C1N)[C@H](CC(=O)N)NC[C@@H](C(=O)N)N)C(=O)N[C@@H]([C@H](C2=CN=CN2)OC3C(C(C(C(O3)CO)O)O)OC4C(C(C(C(O4)CO)O)OC(=O)N)O)C(=O)N[C@H](C)[C@H]([C@H](C)C(=O)N[C@@H]([C@@H](C)O)C(=O)NCCC5=NC(=CS5)C6=NC(=CS6)C(=O)NCCC[S+](C)C)O [Bleomycin] + O=C(c1cc(Cc2n[nH]c(=O)c3ccccc23)ccc1F)N1CCN(C(=O)C2CC2)CC1 [Olaparib] (partner 8 µM) (assay: relative viability (nuclei count vs DMSO), 5 days (fraction); higher = more cells survive). Details: first compound 0.01 µM; main component drawn.
In short: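 Nuclei were stained with Hoechst during a one-step fixation (final 0.05% Triton X-100, 1% formaldehyde, 1 ug/ml Hoechst) carried out 5 days after dosing, then counted on 4× images. The cells, lung cancer lines in 1536-well plates, had been dosed by pin tool the day after seeding with one drug alone or a fixed anchor-drug dose plus five library-drug doses (not always all listed) in √10 steps. Relative viability is the nuclei count in treated wells divided by that in vehicle wells, and each value is the median of duplicate plates.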
For SK-LU-1, the relative viability was 0.38. Cell Line NCI-H661 has a relative viability of 0.654.

Same assay, conditions: first compound 0.03162 µM; main component drawn
NCI-H522 gave a relative viability of 0.627. NCI-H838 was tested, and the relative viability was 0.269. Work on NCI-H1650 yielded a relative viability of 0.183. Work on EBC-1 yielded a relative viability of 0.671. NCI-H1703 was tested, and the relative viability was 0.508. NCI-H1993 was tested, and the relative viability was 0.728. Work on NCI-H2087 yielded a relative viability of 0.46. Work on PC-14 yielded a relative viability of 0.147. Cell Line LCLC-103H has a relative viability of 0.735. NCI-H596 was tested, and the relative viability was 0.515. For NCI-H2228, the relative viability was 0.574. Work on EMC-BAC-2 yielded a relative viability of 0.428. In the case of NCI-H2085, the relative viability is reported as 0.716. Calu-6 gave a relative viability of 0.343. Cell Line HCC-366 has a relative viability of 0.134. Work on NCI-H1666 yielded a relative viability of 0.692. NCI-H647 gave a relative viability of 0.148. With LK-2 the relative viability was 0.451. With NCI-H2126 the relative viability was 0.933. NCI-H2342 gave a relative viability of 0.4. Work on SK-MES-1 yielded a relative viability of 0.493. For H3255, the relative viability was 0.519. Work on COR-L23 yielded a relative viability of 0.188. In the case of COR-L 105, the relative viability is reported as 0.518. In the case of IA-LM, the relative viability is reported as 0.629. For A549, the relative viability was 0.263. For SW 900, the relative viability was 0.615. NCI-H1648 was tested, and the relative viability was 0.571. Cell Line NCI-H2009 has a relative viability of 0.709. For NCI-H520, the relative viability was 0.322. SW 1573 showed a relative viability of 0.336. NCI-H1299 gave a relative viability of 0.904. With CAL-12T the relative viability was 0.375. For NCI-H2023, the relative viability was 0.357. With SK-LU-1 the relative viability was 0.436. With NCI-H661 the relative viability was 0.59.

Same assay, conditions: first compound 0.1 µM; main component drawn
For NCI-H522, the relative viability was 0.625. With NCI-H838 the relative viability was 0.199. NCI-H1650 gave a relative viability of 0.167. For EBC-1, the relative viability was 0.645. With NCI-H1703 the relative viability was 0.289. NCI-H1993 gave a relative viability of 0.645. Work on NCI-H2087 yielded a relative viability of 0.442. PC-14 gave a relative viability of 0.0932. LCLC-103H showed a relative viability of 0.724. With NCI-H596 the relative viability was 0.515. Cell Line NCI-H2228 has a relative viability of 0.457. In the case of EMC-BAC-2, the relative viability is reported as 0.404. For NCI-H2085, the relative viability was 0.47. For Calu-6, the relative viability was 0.254. Cell Line HCC-366 has a relative viability of 0.126. In the case of NCI-H1666, the relative viability is reported as 0.644. With NCI-H647 the relative viability was 0.195. Cell Line LK-2 has a relative viability of 0.279. With NCI-H2126 the relative viability was 0.932. For NCI-H2342, the relative viability was 0.416. With SK-MES-1 the relative viability was 0.439. Cell Line H3255 has a relative viability of 0.495. In the case of COR-L23, the relative viability is reported as 0.133. COR-L 105 showed a relative viability of 0.526. Work on IA-LM yielded a relative viability of 0.716. In the case of A549, the relative viability is reported as 0.29. With SW 900 the relative viability was 0.442. NCI-H1648 was tested, and the relative viability was 0.443. For NCI-H2009, the relative viability was 0.62. With NCI-H520 the relative viability was 0.325. With SW 1573 the relative viability was 0.292. With NCI-H1299 the relative viability was 0.681. Cell Line CAL-12T has a relative viability of 0.217. NCI-H2023 was tested, and the relative viability was 0.238. For SK-LU-1, the relative viability was 0.397. Work on NCI-H661 yielded a relative viability of 0.513.

Same assay, conditions: first compound 0.3162 µM; main component drawn
NCI-H522 gave a relative viability of 0.404. With NCI-H838 the relative viability was 0.138. Cell Line NCI-H1650 has a relative viability of 0.156. With EBC-1 the relative viability was 0.419. Work on NCI-H1703 yielded a relative viability of 0.309. In the case of NCI-H1993, the relative viability is reported as 0.353. NCI-H2087 gave a relative viability of 0.182. Work on PC-14 yielded a relative viability of 0.0421. Work on LCLC-103H yielded a relative viability of 0.56. In the case of NCI-H596, the relative viability is reported as 0.371. Cell Line NCI-H2228 has a relative viability of 0.211. EMC-BAC-2 was tested, and the relative viability was 0.324. NCI-H2085 showed a relative viability of 0.376. Cell Line Calu-6 has a relative viability of 0.127. Cell Line HCC-366 has a relative viability of 0.0346. In the case of NCI-H1666, the relative viability is reported as 0.54. In the case of NCI-H647, the relative viability is reported as 0.0429. Cell Line LK-2 has a relative viability of 0.163. NCI-H2126 showed a relative viability of 0.739. NCI-H2342 was tested, and the relative viability was 0.319. In the case of SK-MES-1, the relative viability is reported as 0.169. H3255 gave a relative viability of 0.373. COR-L23 showed a relative viability of 0.0874. In the case of COR-L 105, the relative viability is reported as 0.417. IA-LM was tested, and the relative viability was 0.474. A549 showed a relative viability of 0.0728. SW 900 showed a relative viability of 0.218. Work on NCI-H1648 yielded a relative viability of 0.267. NCI-H2009 was tested, and the relative viability was 0.453. Work on NCI-H520 yielded a relative viability of 0.251. Cell Line SW 1573 has a relative viability of 0.153. Cell Line NCI-H1299 has a relative viability of 0.346. With CAL-12T the relative viability was 0.177. NCI-H2023 gave a relative viability of 0.0886. Work on SK-LU-1 yielded a relative viability of 0.307. Work on NCI-H661 yielded a relative viability of 0.322.

Same assay, conditions: first compound 1 µM; main component drawn
NCI-H522 showed a relative viability of 0.333. NCI-H838 showed a relative viability of 0.148. In the case of NCI-H1650, the relative viability is reported as 0.158. EBC-1 gave a relative viability of 0.331. In the case of NCI-H1703, the relative viability is reported as 0.166. NCI-H1993 gave a relative viability of 0.43. Cell Line NCI-H2087 has a relative viability of 0.145. PC-14 was tested, and the relative viability was 0.0404. Work on LCLC-103H yielded a relative viability of 0.384. NCI-H596 was tested, and the relative viability was 0.438. In the case of NCI-H2228, the relative viability is reported as 0.159. With EMC-BAC-2 the relative viability was 0.221. Work on NCI-H2085 yielded a relative viability of 0.383. For Calu-6, the relative viability was 0.137. HCC-366 gave a relative viability of 0.0334. With NCI-H1666 the relative viability was 0.599. In the case of NCI-H647, the relative viability is reported as 0.0447. Cell Line LK-2 has a relative viability of 0.165. NCI-H2126 gave a relative viability of 0.67. NCI-H2342 was tested, and the relative viability was 0.362. Work on SK-MES-1 yielded a relative viability of 0.153. H3255 showed a relative viability of 0.344. COR-L23 showed a relative viability of 0.0995. Work on COR-L 105 yielded a relative viability of 0.352. Work on IA-LM yielded a relative viability of 0.328. A549 showed a relative viability of 0.0649. With SW 900 the relative viability was 0.206. NCI-H1648 was tested, and the relative viability was 0.357. For NCI-H2009, the relative viability was 0.268. Work on NCI-H520 yielded a relative viability of 0.268. Cell Line SW 1573 has a relative viability of 0.123. NCI-H1299 was tested, and the relative viability was 0.252. Work on CAL-12T yielded a relative viability of 0.135. Cell Line NCI-H2023 has a relative viability of 0.09. Work on SK-LU-1 yielded a relative viability of 0.29. In the case of NCI-H661, the relative viability is reported as 0.363.
